PubChem BioAssay (NCI)
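Interpolation was linear, between the two tested concentrations surrounding the appropriate level; five concentrations were tested over 48 hours in 96-well plates. TGI: total growth inhibition.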

What was measured:
Assay in all cases: NCI tumour cell line growth inhibition, 48 h
HCC-2998 colon = tested on: HCC-2998 colon
MCF7 breast = tested on: MCF7 breast
HOP-62 NSCLC = tested on: HOP-62 NSCLC
NCI-H226 lung = tested on: NCI-H226 lung
T-47D breast = tested on: T-47D breast
UO-31 renal = tested on: UO-31 renal
NCI-H23 lung = tested on: NCI-H23 lung
CAKI-1 renal = tested on: CAKI-1 renal
SF-268 CNS = tested on: SF-268 CNS
MDA-MB-435 = tested on: MDA-MB-435
TK-10 renal = tested on: TK-10 renal
SR leukemia = tested on: SR leukemia
RPMI-8226 leukemia = tested on: RPMI-8226 leukemia
SK-MEL-28 melanoma = tested on: SK-MEL-28 melanoma
HCT-15 colon = tested on: HCT-15 colon
K-562 leukemia = tested on: K-562 leukemia
SK-MEL-5 melanoma = tested on: SK-MEL-5 melanoma
EKVX NSCLC = tested on: EKVX NSCLC
LOX IMVI melanoma = tested on: LOX IMVI melanoma
HT29 colon = tested on: HT29 colon
CCRF-CEM leukemia = tested on: CCRF-CEM leukemia
DU-145 prostate = tested on: DU-145 prostate
SW-620 colon = tested on: SW-620 colon
MDA-N = tested on: MDA-N
SF-295 CNS = tested on: SF-295 CNS
ACHN renal = tested on: ACHN renal
PC-3 prostate = tested on: PC-3 prostate
OVCAR-8 ovarian = tested on: OVCAR-8 ovarian
KM12 colon = tested on: KM12 colon
SK-OV-3 ovarian = tested on: SK-OV-3 ovarian
NCI-H460 lung = tested on: NCI-H460 lung
OVCAR-3 ovarian = tested on: OVCAR-3 ovarian
SNB-19 CNS = tested on: SNB-19 CNS
SF-539 CNS = tested on: SF-539 CNS
MOLT-4 leukemia = tested on: MOLT-4 leukemia
SK-MEL-2 melanoma = tested on: SK-MEL-2 melanoma
UACC-257 melanoma = tested on: UACC-257 melanoma
NCI/ADR-RES ovarian = tested on: NCI/ADR-RES ovarian
UACC-62 melanoma = tested on: UACC-62 melanoma
SNB-75 CNS = tested on: SNB-75 CNS
OVCAR-4 ovarian = tested on: OVCAR-4 ovarian
HS 578T breast = tested on: HS 578T breast
U251 CNS = tested on: U251 CNS
COLO 205 colon = tested on: COLO 205 colon
IGROV1 ovarian = tested on: IGROV1 ovarian
A498 renal = tested on: A498 renal
OVCAR-5 ovarian = tested on: OVCAR-5 ovarian
HOP-92 NSCLC = tested on: HOP-92 NSCLC
M14 melanoma = tested on: M14 melanoma
HL-60(TB) leukemia = tested on: HL-60(TB) leukemia
RXF 393 renal = tested on: RXF 393 renal
A549 NSCLC = tested on: A549 NSCLC
MALME-3M melanoma = tested on: MALME-3M melanoma
MDA-MB-231 breast = tested on: MDA-MB-231 breast
SN12C renal = tested on: SN12C renal
HCT-116 colon = tested on: HCT-116 colon
NCI-H522 lung = tested on: NCI-H522 lung

## CC(=O)O[C@@H]1CN(S(=O)(=O)c2ccc(C)cc2)C[C@@H]1C1CCCCC1
HCC-2998 colon
  TGI: > 100 µM
MCF7 breast
  TGI: 42.1 µM
HOP-62 NSCLC
  TGI: 66.7 µM
NCI-H226 lung
  TGI: 34.6 µM
T-47D breast
  TGI: > 100 µM
UO-31 renal
  TGI: > 100 µM
NCI-H23 lung
  TGI: > 100 µM
CAKI-1 renal
  TGI: 45.6 µM
SF-268 CNS
  TGI: 52.5 µM
MDA-MB-435
  TGI: 44.6 µM
TK-10 renal
  TGI: 41.4 µM
SR leukemia
  TGI: > 100 µM
RPMI-8226 leukemia
  TGI: 67.7 µM
SK-MEL-28 melanoma
  TGI: 34.3 µM
HCT-15 colon
  TGI: > 100 µM
K-562 leukemia
  TGI: > 100 µM
SK-MEL-5 melanoma
  TGI: 45.8 µM
EKVX NSCLC
  TGI: 58.6 µM
LOX IMVI melanoma
  TGI: 64 µM
HT29 colon
  TGI: 74 µM
CCRF-CEM leukemia
  TGI: > 100 µM
DU-145 prostate
  TGI: > 100 µM
SW-620 colon
  TGI: 41.3 µM
MDA-N
  TGI: 54.7 µM
SF-295 CNS
  TGI: > 100 µM
ACHN renal
  TGI: > 100 µM
PC-3 prostate
  TGI: 46.4 µM
OVCAR-8 ovarian
  TGI: 69.6 µM
KM12 colon
  TGI: 29.8 µM
SK-OV-3 ovarian
  TGI: > 100 µM
NCI-H460 lung
  TGI: > 100 µM
OVCAR-3 ovarian
  TGI: 28.2 µM
SNB-19 CNS
  TGI: > 100 µM
SF-539 CNS
  TGI: 0.609 µM
MOLT-4 leukemia
  TGI: 65.3 µM
SK-MEL-2 melanoma
  TGI: 32.2 µM
UACC-257 melanoma
  TGI: 35.7 µM
NCI/ADR-RES ovarian
  TGI: 53.3 µM
UACC-62 melanoma
  TGI: 33.4 µM
SNB-75 CNS
  TGI: 44.4 µM
OVCAR-4 ovarian
  TGI: > 100 µM
HS 578T breast
  TGI: 23.7 µM
U251 CNS
  TGI: 37.2 µM
COLO 205 colon
  TGI: 46.5 µM
IGROV1 ovarian
  TGI: 38.6 µM
A498 renal
  TGI: 55.1 µM
OVCAR-5 ovarian
  TGI: > 100 µM
HOP-92 NSCLC
  TGI: 33.8 µM
M14 melanoma
  TGI: 29.3 µM

## COc1ccc2oc3c(ccc[n+]3C)c(=O)c2c1
HCC-2998 colon
  TGI: > 100 µM
MCF7 breast
  TGI: > 100 µM
HOP-62 NSCLC
  TGI: > 100 µM
NCI-H226 lung
  TGI: > 100 µM
T-47D breast
  TGI: > 100 µM
UO-31 renal
  TGI: > 100 µM
NCI-H23 lung
  TGI: > 100 µM
CAKI-1 renal
  TGI: > 100 µM
SF-268 CNS
  TGI: > 100 µM
MDA-MB-435
  TGI: > 100 µM
TK-10 renal
  TGI: > 100 µM
SR leukemia
  TGI: > 100 µM
HL-60(TB) leukemia
  TGI: > 100 µM
RXF 393 renal
  TGI: > 100 µM
SK-MEL-28 melanoma
  TGI: > 100 µM
HCT-15 colon
  TGI: > 100 µM
K-562 leukemia
  TGI: > 100 µM
SK-MEL-5 melanoma
  TGI: > 100 µM
A549 NSCLC
  TGI: > 100 µM
EKVX NSCLC
  TGI: > 100 µM
LOX IMVI melanoma
  TGI: > 100 µM
HT29 colon
  TGI: > 100 µM
CCRF-CEM leukemia
  TGI: > 100 µM
DU-145 prostate
  TGI: > 100 µM
MALME-3M melanoma
  TGI: > 100 µM
SW-620 colon
  TGI: > 100 µM
MDA-MB-231 breast
  TGI: > 100 µM
MDA-N
  TGI: > 100 µM
SF-295 CNS
  TGI: > 100 µM
ACHN renal
  TGI: > 100 µM
SN12C renal
  TGI: > 100 µM
PC-3 prostate
  TGI: > 100 µM
OVCAR-8 ovarian
  TGI: > 100 µM
KM12 colon
  TGI: > 100 µM
HCT-116 colon
  TGI: > 100 µM
NCI-H522 lung
  TGI: > 100 µM
SK-OV-3 ovarian
  TGI: > 100 µM
NCI-H460 lung
  TGI: > 100 µM
OVCAR-3 ovarian
  TGI: > 100 µM
SNB-19 CNS
  TGI: > 100 µM
SF-539 CNS
  TGI: > 100 µM
SK-MEL-2 melanoma
  TGI: > 100 µM
NCI/ADR-RES ovarian
  TGI: > 100 µM
UACC-62 melanoma
  TGI: > 100 µM
SNB-75 CNS
  TGI: > 100 µM
OVCAR-4 ovarian
  TGI: > 100 µM
HS 578T breast
  TGI: > 100 µM
U251 CNS
  TGI: > 100 µM
COLO 205 colon
  TGI: > 100 µM
IGROV1 ovarian
  TGI: > 100 µM
A498 renal
  TGI: > 100 µM
OVCAR-5 ovarian
  TGI: > 100 µM
HOP-92 NSCLC
  TGI: > 100 µM
M14 melanoma
  TGI: > 100 µM
